Usually T/C stands for the ratio of treated to control.

≈ marks a conversion by molar mass, not a printed value. A value given as a limit tells only on which side of the number the result lay.

Data set [1] can be described thus: Antiproliferative activity against MEF after 72 hrs. The class given is cell-based. The conditions noted are these: mouse, MEF cells; read-out: ID50.
The test system of a further data set is MEF. Kind of data set: Inhibition of Murine sarcoma virus (Moloney) foci formation in MEF after 72 hrs. It is filed as functional. The conditions noted are these: Mus musculus, read-out: ID50 (the source's name).
Another data set relates to HeLa. Description: Cytotoxicity against human HeLa cells assessed as cloning efficiency after 8 hrs. The conditions noted are these: read-out: ID50 (the source's name). It is filed as functional.
Data set [2] relates to Sarcoma-180. Kind of data set: Antitumor activity against mouse Sarcoma 180 cells allografted in mouse assessed as average survival time at 2 mg/kg, ip on day 1 post challenge relative to untreated control. It is filed as functional. Particulars: route intraperitoneal.
Data set [3] concerns Mus musculus. Description: Toxicity in mouse allografted with mouse Sarcoma 180 cells assessed as mortality at >5 mg/kg, ip on day 1 post challenge. It is filed as organism-based. Particulars: in vivo.
The test system of data set [4] is Sarcoma-180. Description: Antitumor activity against mouse Sarcoma 180 cells allografted in mouse assessed as average survival time at 10 mg/kg, ip on day 1 post challenge relative to untreated control. The class given is functional. Particulars: route intraperitoneal.
Data set [5] has as its system Mus musculus. Kind of data set: Toxicity in mouse allografted with mouse Sarcoma 180 cells assessed as mortality at 10 mg/kg, ip on day 1 post challenge. It is filed as organism-based. Details: dose 10 mg/kg, route intraperitoneal. The conditions noted are these: in vivo.
Data set [6] has as its system Mus musculus. Kind of data set: Toxicity in mouse allografted with mouse Sarcoma 180 cells assessed as mortality at 2 mg/kg, ip on day 1 post challenge. Set-up: dose 2 mg/kg, route intraperitoneal. Particulars: in vivo. The class given is organism-based.

In the case of `COc1cccc2c1C(=O)c1c(O)c3c(c(O)c1C2=O)C[C@@](O)(C(=O)CO)C[C@@H]3O[C@H]1C[C@H](N)[C@H](O)[C@H](C)O1.Cl` [DOXORUBICIN HYDROCHLORIDE], in data set [1], the GI50 at 72 h turned out to be 0.007 µg/mL. Moreover, the values for the IC50 in the data set with MEF and in the data set with HeLa were 0.0025 µg/mL and 0.11 µg/mL, respectively. In addition, the T/C in the data set with Sarcoma-180 [2] came out at 210%.
Regarding `COc1cccc2c1C(=O)c1c(O)c3c(c(O)c1C2=O)C[C@@](O)(C(C)=O)C[C@@H]3O[C@H]1C[C@H](N)[C@@H](O)[C@H](C)O1`, the Activity entry with Mus musculus [3] was “Toxic”.
Consider `COc1cccc2c1C(=O)c1c(O)c3c(c(O)c1C2=O)C[C@@](O)(C(C)=O)C[C@@H]3O[C@H]1C[C@H](N)[C@H](O)[C@H](C)O1` [DAUNORUBICIN], for which the GI50 at 72 h in data set [1] is 0.009 µg/mL (≈ 0.0171 µM). For the same compound, the IC50 came out at 0.0055 µg/mL (≈ 0.0104 µM) in the data set on MEF and 0.013 µg/mL (≈ 0.0246 µM) with HeLa. The T/C in the data set with Sarcoma-180 [2] amounted to 192%.
As for `COc1cccc2c1C(=O)c1c(O)c3c(c(O)c1C2=O)C[C@@](O)(C(C)=O)C[C@@H]3O[C@H]1C[C@H](N)[C@@H](O)[C@H](CO)O1.Cl`, the GI50 at 72 h in data set [1] worked out at 0.256 µg/mL. Moreover, the T/C in the data set with Sarcoma-180 [4] is given as 167%. Also, the Activity entry in the data set with Mus musculus [5] and in the data set on Mus musculus [6] was “Non-toxic” each time. Moreover, the figures for the IC50 in the data set with MEF and in the data set on HeLa were 0.1 µg/mL and over 10 µg/mL, respectively.
Regarding `COc1cccc2c1C(=O)c1c(O)c3c(c(O)c1C2=O)C[C@@](O)(C(=O)CO)C[C@@H]3O[C@H]1C[C@H](N)[C@@H](O)[C@H](CO)O1`, the GI50 at 72 h in data set [1] worked out at 0.05 µg/mL (≈ 0.0894 µM). The T/C in the data set on Sarcoma-180 [4] worked out at 162%. Further, the Activity result with Mus musculus [5] and in the data set on Mus musculus [6] was “Non-toxic” in each case. In addition, the results for the IC50 with MEF and with HeLa were 0.025 µg/mL (≈ 0.0447 µM) and 1 µg/mL (≈ 1.79 µM), respectively.
On to `COc1cccc2c1C(=O)c1c(O)c3c(c(O)c1C2=O)C[C@@](O)(C(=O)CO)C[C@@H]3O[C@H]1C[C@H](N)[C@@H](O)[C@H](C)O1` [EPIRUBICIN], for which the Activity result in the data set with Mus musculus [3] is “Toxic”.

Source of the values: ChEMBL document CHEMBL3272277, “Stereocontrolled glycosidation of daunomycinone. Synthesis and biological evaluation of 6-hydroxy-L-arabino analogues of antitumor anthracyclines” (J Med Chem, 1976).
